# Reference: patent US11098006B2, “Lipids and complexes for the delivery of biologically-active material to cells” (RYBOQUIN COMPANY LTD, priority 2016, dated 2021)
# Columns and labels:
# COS.7 cells = settings: cited from earlier work
# many cell types = settings: cited from earlier work
# [1] = cited from earlier work
# [2] = system: 1HAEo- human airway epithelial cells; test: In vitro transfection with LPD formulations, luciferase reporter assay; format: cell-based; settings: 1HAEo- cells; LPD with peptide ME27 and plasmid pCI-Luc; FIG. 2
# Experimental: (§1) Cells tested included 1HAEo-human airway epithelial cells, NIH3T3 murine fibroblasts, and Neuro2A murine neuroblastoma cells. Cells were seeded into 96-well plates at approximately 2×10^4 cells per well, then incubated overnight at 37° C. in complete growth medium. The following day, lipopolyplex (LPD) formulations were prepared essentially as described previously (Hart et al., 1998), by mixing the components in the following order: 50 μl of lipid (L) at 80 μg/ml in OptiMEM, 70 μl of peptide (P) at 110 μg/ml in OptiMEM and 50 μl of plasmid pCI-Luc (D) at 40 μg/ml in OptiMEM corresponding to a weight ratio of 2:4:1, respectively. […] The cells were incubated with the complexes for 4 h at 37° C. before replacing with fresh media for 24 h, after which reporter gene expression was analyzed by luciferase assay (Promega, Madison, Wis., USA). […]
# (§2) Cells were washed once with PBS before the addition of 20 μl of 1× Reporter Lysis Buffer (Promega, Madison, Wis., USA) to the cells for 20 min at 4° C. before freezing at −80° C. for at least 30 min, followed by thawing at room temperature. Then the luciferase activity was measured during 10 seconds using the Luciferase Assay System (Promega, Madison, Wis., USA) and an Optima Fluostar plate reader (BMG Labtech). […] In vitro luciferase activity was expressed as Relative Light Units (RLU) per milligram of protein (RLU/mg).
# [3] = Size of LPD nanoparticles by dynamic light scattering; format: physicochemical; settings: peptide ME27; weight ratio 0.75:4:1 (L:P:D); FIG. 7
# Experimental: The size of LPD nanoparticles containing peptides ME27 with lipids FMM30 or FMM30/DPE were determined at different weight ratios of liposome to DNA (w/w) by dynamic light scattering using a NanoZS Zetasizer (Malvern).
# [4] = Transmission electron microscope imaging of LPD particles; format: physicochemical; settings: peptide ME27; weight ratio 0.75:4:1 (L:P:D); FIG. 5 and FIG. 6
# Excerpt: Transmission Electon Microscope images of LPD particles comprising FMM30 with peptide ME27 at a weight ratio of 0.75:4:1 (L:P:D) is shown in FIG. 5 (FMM30-PD-0.75) and lipids FMM30/DOPE at the same weight ratio is shown in FIG. 6 (FMM30/DOPE-PD 0.75).
# [5] = system: NIH3T3 murine fibroblasts; test: In vitro transfection with LPD formulations, luciferase reporter assay; format: cell-based; settings: NIH3T3 cells; LPD with peptide ME27 and plasmid pCI-Luc; FIG. 1
# Experimental: as §1, §2
structure (smiles),measurement,setting,value
CCCCCCCCCCCCCCOCC(C[N+](C)(C)CCO)OCCCCCCCCCCCCCC.[Br-] (stereo not drawn) [DMRIE 7],transfection activity of hydroxyalkyl cytofectins,COS.7 cells; compared with DOTMA 1,one of the more efficient lipids
CCCCCCCC/C=C\CCCCCCCCOCC(C[N+](C)(C)CCO)OCCCCCCCC/C=C\CCCCCCCC.[Br-] (stereo not drawn) [DORIE 6],transfection efficacies in COS.7 cells,"COS.7 cells; co-formulation with helper lipid DOPE 2, compared to lipids with hydroxypropyl-hydroxypentyl groups",higher transfection efficacies
CCCCCCCC/C=C\CCCCCCCC(=O)OCC(C[N+](C)(C)C)OC(=O)CCCCCCC/C=C\CCCCCCCC (stereo not drawn) [DOTAP 4],levels of transfection in vitro,many cell types,comparable levels of transfection
CCCCCCCC/C=C\CCCCCCCCOCC(C[N+](C)(C)C)OCCCCCCCC/C=C\CCCCCCCC.[Cl-] (stereo not drawn) [DOTMA 1],transfection activities in vivo,[1],exhibited higher transfection activities
same,levels of transfection in vitro,many cell types,comparable levels of transfection
"CCCCCCCC/C=C\CCCCCCCCOCC(C[N+](C)(C)CCOCCOCCOCCOC(=O)CCCCCCC/C=C\CCCCCCCC)OCCCCCCCC/C=C\CCCCCCCC (stereo not drawn) [FMM30, (9Z)—N-(2,3-bis((9Z)-octadecenyloxy)propyl)-N,N-dimethyl-13-oxo-3,6,9,12-tetraoxatriacont-21-en-1-aminium bromide]",transfection levels,[2],far higher than the bi-chain lipid CH300
same,size of LPD nanoparticles,[3],approximately 80 nm
same,particle size and shape in TEM images,[4],quite similar sizes with a combination of shapes including rods and spheres
same,transfection levels,[5],far higher than the bi-chain lipid CH300
